Test system: Hydroxyapatite
Experiment: Binding affinity to hydroxyapatite at 10 nM by UV-spectroscopy relative to tetracycline

CCCCC(CC)COP(=O)(OCC(CC)CCCC)Oc1ccc2c(c1)CC[C@@H]1[C@@H]2CC[C@]2(C)[C@@H](OCCC(=O)Nc3ccc(OC)c(C(N)=O)c3O)CC[C@@H]12 (stereo partly drawn)
RBA: 180%

COc1ccc(NC(=O)CCO[C@H]2CC[C@H]3[C@@H]4CCc5cc(OP(=O)(OC(C)C)OC(C)C)ccc5[C@H]4CC[C@]23C)c(O)c1C(N)=O
RBA: 200%

CN(C)[C@@H]1C(O)=C(C(N)=O)C(=O)[C@@]2(O)C(O)=C3C(=O)c4c(O)cccc4[C@@](C)(O)[C@H]3C[C@@H]12
RBA: 100%

COc1ccc(NC(=O)CCO[C@H]2CC[C@H]3[C@@H]4CCc5cc(OP(=O)(OCc6ccccc6)OCc6ccccc6)ccc5[C@H]4CC[C@]23C)c(O)c1C(N)=O
RBA: 190%

CCCCOP(=O)(OCCCC)Oc1ccc2c(c1)CC[C@@H]1[C@@H]2CC[C@]2(C)[C@@H](OCCC(=O)Nc3ccc(OC)c(C(N)=O)c3O)CC[C@@H]12
RBA: 100%

CCCCCCCCCCCCOP(=O)(OCCCCCCCCCCCC)Oc1ccc2c(c1)CC[C@@H]1[C@@H]2CC[C@]2(C)[C@@H](OCCC(=O)Nc3ccc(OC)c(C(N)=O)c3O)CC[C@@H]12
RBA: 160%

COc1ccc(NC(=O)CCO[C@H]2CC[C@H]3[C@@H]4CCc5cc(OP(=O)(OCC(C)C)OCC(C)C)ccc5[C@H]4CC[C@]23C)c(O)c1C(N)=O
RBA: 180%

C[C@]12CC[C@@H]3c4ccc(O)cc4CC[C@H]3[C@@H]1CC[C@@H]2O
RBA: 0%

Reference: ChEMBL document CHEMBL1287764, “3-O-phosphate ester conjugates of 17-β-O-{1-[2-carboxy-(2-hydroxy-4-methoxy-3-carboxamido)anilido]ethyl}1,3,5(10)-estratriene as novel bone-targeting agents” (Bioorg Med Chem Lett, 2010)
